Our source for the Activity values is ChEMBL document CHEMBL1153926, “Evaluation of synthetic sphingolipid analogs as ligands for peroxisome proliferator-activated receptors” (Bioorg Med Chem Lett, 2009).

Calls of active or inactive are those of the source. The calls are words filed in the database; no cut-off is given here.

What all share (format): cell-based
The target of assay [1] is T1, Peroxisome proliferator-activated receptor gamma (Mus musculus) (UniProt P37238).
T1 sequence (whole entry): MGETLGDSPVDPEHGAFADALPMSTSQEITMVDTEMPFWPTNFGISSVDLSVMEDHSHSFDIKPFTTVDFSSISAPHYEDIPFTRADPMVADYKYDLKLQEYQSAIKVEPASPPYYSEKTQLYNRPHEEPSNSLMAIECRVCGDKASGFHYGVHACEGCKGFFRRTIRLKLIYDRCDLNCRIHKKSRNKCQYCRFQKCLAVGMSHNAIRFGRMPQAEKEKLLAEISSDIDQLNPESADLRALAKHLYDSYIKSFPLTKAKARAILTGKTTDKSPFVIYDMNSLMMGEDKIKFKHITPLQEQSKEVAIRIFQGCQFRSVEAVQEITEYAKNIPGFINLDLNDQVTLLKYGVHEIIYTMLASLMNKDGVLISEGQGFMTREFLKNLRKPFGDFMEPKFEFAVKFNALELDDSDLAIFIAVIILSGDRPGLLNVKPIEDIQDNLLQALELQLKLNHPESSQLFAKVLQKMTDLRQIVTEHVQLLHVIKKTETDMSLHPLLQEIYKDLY
The assay can be described thus: Transactivation of mouse recombinant PPARgamma expressed in mouse NIH3T3 cells by PPRE activation based dual luciferase reporter gene assay relative to control. (In a reporter assay the amount or activity of a reporter protein is the signal.)

Assay [2] addresses T2, Peroxisome proliferator-activated receptor delta (Mus musculus) (UniProt P35396).
T2 sequence (whole entry): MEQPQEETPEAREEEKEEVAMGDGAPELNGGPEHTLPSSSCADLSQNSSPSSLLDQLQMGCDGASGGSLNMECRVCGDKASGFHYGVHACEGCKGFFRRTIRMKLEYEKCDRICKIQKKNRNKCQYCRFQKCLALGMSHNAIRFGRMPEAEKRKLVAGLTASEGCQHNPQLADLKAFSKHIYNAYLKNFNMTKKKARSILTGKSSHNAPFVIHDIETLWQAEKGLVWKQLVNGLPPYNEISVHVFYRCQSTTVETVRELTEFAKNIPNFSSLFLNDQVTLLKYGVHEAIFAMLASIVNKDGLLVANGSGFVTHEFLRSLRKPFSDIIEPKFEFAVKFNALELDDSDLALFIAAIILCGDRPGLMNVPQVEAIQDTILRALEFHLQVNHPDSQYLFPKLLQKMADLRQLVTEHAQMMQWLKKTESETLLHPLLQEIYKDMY
The assay can be described thus: Transactivation of mouse recombinant PPARbeta expressed in mouse NIH3T3 cells by PPRE activation based dual luciferase reporter gene assay relative to control.

Assay [3] deals with T3, Peroxisome proliferator-activated receptor alpha (Mus musculus) (UniProt P23204).
T3 sequence (whole entry): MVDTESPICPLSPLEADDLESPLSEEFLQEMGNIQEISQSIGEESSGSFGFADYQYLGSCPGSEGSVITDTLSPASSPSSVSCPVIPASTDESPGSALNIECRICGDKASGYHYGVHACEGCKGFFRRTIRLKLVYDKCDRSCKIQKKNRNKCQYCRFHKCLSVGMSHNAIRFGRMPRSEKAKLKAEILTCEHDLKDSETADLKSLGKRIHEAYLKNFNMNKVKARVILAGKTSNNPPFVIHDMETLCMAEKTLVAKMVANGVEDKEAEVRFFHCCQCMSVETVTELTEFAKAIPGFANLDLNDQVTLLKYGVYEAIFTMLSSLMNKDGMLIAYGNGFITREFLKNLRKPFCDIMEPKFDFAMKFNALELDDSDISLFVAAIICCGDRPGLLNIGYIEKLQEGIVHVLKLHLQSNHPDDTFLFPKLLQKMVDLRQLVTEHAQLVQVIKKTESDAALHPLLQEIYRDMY
The assay can be described thus: Transactivation of mouse recombinant PPARalpha expressed in mouse NIH3T3 cells at 5 uM by PPRE activation based dual luciferase reporter gene assay relative to control.

Assay [4] concerns the target T3, Peroxisome proliferator-activated receptor alpha (Mus musculus). As to the kind of experiment: Transactivation of mouse recombinant PPARalpha expressed in mouse NIH3T3 cells at 0.1 uM to 10 uM by PPRE activation based dual luciferase reporter gene assay relative to control.

Regarding `CCCCCCCCCCCCCC[C@@H](O)[C@@H](O)[C@@H](CO)NC(=O)CCCCCCCCCCCCC`, the result in assay [1] and in assay [3] was Active. Also, the Activity entry in assay [2] is “Dose-dependent effect”.

`CCCCCCCCCCCCCC[C@@H](O)[C@H](O)[C@H](CO)NC(=O)CCCCCCCCCCCCC`: the outcome in assay [1] and in assay [3] was Active. For the same compound, in assay [2], the Activity result was “Dose-dependent effect”.

As to `CCCCCCCCCCCCCC[C@@H](O)[C@@H](O)[C@@H](CO)NC(=O)CBr`, the outcome in assay [1] was Active.

On to `Cc1cccc(Nc2cc(Cl)nc(SCC(=O)O)n2)c1C`, for which, in assay [4], the outcome was Active.

Consider `CC1(COc2ccc(CC3SC(=O)NC3=O)cc2)CCCCC1` (centres undefined), for which the outcome in assay [1] was Active.

For the compound `CCCCCCCCCCCCCC[C@H](O)[C@H](O)[C@H](CO)NC(=O)CCCCCCCCCCCCC`, the result in assay [1] and in assay [3] was Active. The Activity result in assay [2] is “Dose-dependent effect”.

Turning to `CCCCCCCCCCCCCC[C@H](O)[C@@H](O)[C@H](CO)NC(=O)[C@H](Cc1ccccc1)NC(=O)OC(C)(C)C`, the outcome in assay [1], in assay [4] and in assay [3] was Active. The Activity result in assay [2] is “Dose-dependent effect”.

Turning to `CCCCCCCCCCCCCC[C@H](O)[C@H](O)[C@@H](CO)NC(=O)[C@H](Cc1ccccc1)NC(=O)OC(C)(C)C`, the result in assay [1], in assay [4] and in assay [3] was Active. In assay [2], the Activity result is “Dose-dependent effect”.

Take `CCCCCCCCCCCCCC[C@@H](O)[C@H](O)[C@@H](CO)NC(=O)[C@H](Cc1ccccc1)NC(=O)OC(C)(C)C`: the result in assay [1], in assay [4] and in assay [3] was Active. In addition, in assay [2], the Activity result is “Dose-dependent effect”.
